# Experimental data: patent US11286268B1, “EIF4E-inhibiting compounds and methods” (EFFECTOR THERAPEUTICS, INC., priority 2019, dated 2022)
# Where two headings read alike, the source gives them in different places.
# Target: recombinant eIF4E (Homo sapiens (Human), UniProt P06730)
# Test: Fluorescence polarization competition assay for eIF4E binding potency
# Method: Compounds were screened for eIF4E binding potency using a fluorescence polarization competition assay. All binding reactions were performed in fluorescence polarization buffer (FPB) containing 20 mM Tris pH 7.5, 100 mM NaCl, 1 mM DTT, and 0.02% Tween-20. Final binding reactions contained 75 nM recombinant eIF4E (Beryllium, custom order), 20 nM EDA-m^7GDP-ATTO-550 (Jena Bioscience, NU-827-550) and varying concentrations of the inhibitory compound of interest. Final DMSO concentration in each reaction was 1%.
# eIF4E protein was pre-incubated with EDA-m^7GDP-ATTO-550 in FPB at 2× concentrations for 5 minutes prior to the addition of compounds. Compounds (100×) were prepared using 3-fold serial dilutions in 100% DMSO, and subsequently diluted 1:50 in FPB to produce 2× stocks. 50 μl of 2× eIF4E/EDA-m^7GDP-ATTO-550 were transferred to the wells of a 96-well half-area black flat bottom polystyrene plate. 50 μl of 2× test compound were added, and binding reactions were allowed to equilibrate for 30 minutes at room temperature while protected from light. The fluorescent polarization signal was detected using a Victor 2 multi-label counter (Perkin Elmer) and the concentration necessary to achieve inhibition of eIF4E/EDA-m^7GDP-ATTO-550 binding by 50% (IC50) was calculated using data from an 8-point compound dilution series.
# In Table 4A, IC50 values of less than 0.05 μM are labelled as “+++”, from 1 to 0.05 μM are labelled as “++”, and greater than 1 μM are labelled as “+”. ND=not determined.
# [1] = inhibition of eIF4E/EDA-m7GDP-ATTO-550 binding by 50%, Table 4B calculated values, read-out: IC50
# [2] = fluorescence polarization competition, 75 nM recombinant eIF4E, 20 nM EDA-m7GDP-ATTO-550, IC50 class, read-out: elF4E FP
# Chain of recombinant eIF4E (P06730 whole entry): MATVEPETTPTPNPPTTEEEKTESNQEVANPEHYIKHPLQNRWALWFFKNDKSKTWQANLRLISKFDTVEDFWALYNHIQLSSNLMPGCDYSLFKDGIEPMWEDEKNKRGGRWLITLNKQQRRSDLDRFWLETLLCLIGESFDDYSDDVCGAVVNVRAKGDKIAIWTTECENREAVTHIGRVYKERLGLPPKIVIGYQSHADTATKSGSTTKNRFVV
IC50 [1] [nM],IC50 [2] [nM],Compound
63.1,,Cc1nc2cncc(C#N)c2c(=O)n1CCOc1ccc(Cl)cc1-c1cccc(P(=O)(O)O)c1 [150FA]
143,,Cc1nc2cncc(C#N)c2c(=O)n1CCOc1ccc(Cl)cc1-c1cccc(P(=O)(O)OC(C)C)c1 [150FB]
124,,Cc1nc2cnccc2c(=O)n1CCOc1ccc(Cl)cc1-c1cccc(P(=O)(O)O)c1 [150FC]
43.2,,Cc1cc(-c2cc(Cl)ccc2OCCn2c(C)nc3cc(C(F)(F)F)c(-c4ccccc4C#N)nc3c2=O)c2scc(C(=O)O)c2n1 [345a]
25.3,,Cc1cc(-c2cc(Cl)ccc2OCCn2c(C)nc3cc(C(F)(F)F)c(-c4ccccc4C(N)=O)nc3c2=O)c2scc(C(=O)O)c2n1 [345b]
885,,Cc1cc(-c2cc(Cl)ccc2OCCn2c(C)nc3cc(C(F)(F)F)cc(O)c3c2=O)c2scc(C(=O)O)c2n1 [351a]
93.6,,Cc1cc(-c2cc(Cl)ccc2OCCn2c(C)nc3cc(C(F)(F)F)ccc3c2=O)c2scc(C(=O)O)c2n1 [351b]
2.87,,Cc1cc(-c2cc(Cl)ccc2OCCn2c(C)nc3cc(C(F)F)c(N(C)C)c(C#N)c3c2=O)c2scc(C(=O)O)c2n1 [439a]
32,,Cc1cc(-c2cc(Cl)ccc2OCCn2c(C)nc3cc(C(F)F)c(O)c(C#N)c3c2=O)c2scc(C(=O)O)c2n1 [439b]
1940,> 1000,Cc1cc(-c2nc3c(=O)n(CCOc4ccc(Cl)cc4-c4ccc(C#N)c5c(C(=O)O)csc45)c(C)nc3cc2C(F)(F)F)ccn1 [788Fa]
4.35,< 50,Cc1cc(-c2nc3c(=O)n(CCOc4ccc(Cl)cc4-c4ccc(C(N)=O)c5c(C(=O)O)csc45)c(C)nc3cc2C(F)(F)F)ccn1 [788Fb]
38.3,,Cc1cc(-c2cc(Cl)ccc2OCCn2c(C)nc3cc(Cl)c(N4C[C@@H](C)N(C)[C@@H](C)C4)c(C#N)c3c2=O)c2sc(C)c(C(=O)O)c2n1 [1090a]
503,,Cc1cc(-c2cc(Cl)ccc2OCCn2c(C)nc3cc(N4C[C@@H](C)N(C)[C@@H](C)C4)c(F)c(C#N)c3c2=O)c2sc(C)c(C(=O)O)c2n1 [1090b]
19.2,,Cc1nc2cnc(N(C)C3CCN([C@H]4C[C@@H](OC(F)(F)F)C4)CC3)c(C#N)c2c(=O)n1CC#Cc1ccc(Cl)cc1-c1ccnc2c(C(=O)O)csc12 [1173a]
13,,COCCC(CCOC)N(C)c1ncc2nc(C)n(CC#Cc3ccc(Cl)cc3-c3ccnc4c(C(=O)O)csc34)c(=O)c2c1C#N [1173b]
22.9,< 50,Cc1nc2cc(C(F)(F)F)cc(C#N)c2c(=O)n1CCOc1ccc(Cl)cc1-c1ccnc2c(C(=O)O)csc12 [Compound 272]
50.9,50 to 1000,COc1cncc(-c2c(C(F)(F)F)cc3nc(C)n(CCOc4ccc(Cl)cc4-c4cc(C)nc5c(C(=O)O)csc45)c(=O)c3c2C#N)c1 [Compound 1060]
1.52,< 50,CCc1cc(-c2cc(Cl)ccc2OCCn2c(C)nc3c(C)nc(N)c(C#N)c3c2=O)c2scc(C(=O)O)c2n1 [Compound 1069]
281,50 to 1000,Cc1nc2cnccc2c(=O)n1CCOc1ccc(Cl)cc1-c1cccc(C(=O)O)c1 [compound 1]

IC50 [1] [nM],IC50 [2] [nM],Compound
4720,> 1000,O=C(O)c1cccc(-c2cc(Cl)ccc2OCCn2cnc3cc(F)ccc3c2=O)c1 [compound 3]
3520,> 1000,O=C(O)c1cccc(-c2cc(Cl)ccc2OCCn2cnc3cccc(F)c3c2=O)c1 [compound 4]
7640,> 1000,O=C(O)c1cccc(-c2cc(Cl)ccc2OCCn2ccc3cnccc3c2=O)c1 [compound 5]
7390,> 1000,O=C(O)c1cccc(-c2cc(Cl)ccc2OCCn2ccc3ccncc3c2=O)c1 [compound 6]
12000,> 1000,O=C(O)c1cccc(-c2cc(Cl)ccc2OCCn2ccc3cccnc3c2=O)c1 [compound 7]
> 30000,> 1000,O=C(O)c1cccc(-c2cc(Cl)ccc2OCCn2ccc3ccccc3c2=O)c1 [compound 9]
6510,> 1000,O=C(O)c1cccc(-c2cc(Cl)ccc2OCCn2ccc3ncccc3c2=O)c1 [compound 10]
6850,> 1000,O=C(O)c1cccc(-c2cc(Cl)ccc2OCCn2cnc3ccccc3c2=O)c1 [compound 11]
2390,> 1000,O=C(O)c1cccc(-c2cc(Cl)ccc2OCCn2cnc3ccncc3c2=O)c1 [compound 12]
1070,> 1000,O=C(O)c1cccc(-c2cc(Cl)ccc2OCCn2cnc3ccncc3c2=O)c1 [compound 13]
> 3000,> 1000,O=C(O)c1cccc(-c2cc(Cl)ccc2OCCn2ccc3ncncc3c2=O)c1 [compound 14]
1740,> 1000,O=C(O)c1cccc(-c2cc(Cl)ccc2OCCn2ccc3nnccc3c2=O)c1 [compound 15]
721,50 to 1000,O=C(O)c1cccc(-c2cc(Cl)ccc2OCCn2cnc3ncncc3c2=O)c1 [compound 17]
832,50 to 1000,O=C(O)c1cccc(-c2cc(Cl)ccc2OCCn2cnc3nnccc3c2=O)c1 [compound 18]
838,50 to 1000,O=C(O)c1cccc(-c2cc(Cl)ccc2OCCn2cnc3nccnc3c2=O)c1 [compound 19]
575,50 to 1000,O=C(O)c1cccc(-c2cc(Cl)ccc2OCCn2cnc3cccnc3c2=O)c1 [compound 21]
24.9,< 50,Cc1nc2c(F)cc(C(F)F)c(C#N)c2c(=O)n1CCOc1ccc(Cl)cc1-c1ccnc2c(C(=O)O)csc12 [compound 22]
184,50 to 1000,CC#Cc1c(C(=O)O)cccc1-c1cc(Cl)ccc1OCCn1cnc2cnc(C#N)cc2c1=O [compound 24]
12600,> 1000,N#Cc1cc2c(=O)n(Cc3cc4cc(Cl)cc(-c5cccc(C(=O)O)c5)c4o3)cnc2cn1 [compound 25]

IC50 [1] [nM],IC50 [2] [nM],Compound
919,50 to 1000,O=C(O)c1cccc(-c2cc(Cl)ccc2OCCn2cnc3cnc(Sc4ccccc4)cc3c2=O)c1 [compound 26]
149,50 to 1000,N#Cc1ccc2ncn(CCOc3ccc(Cl)cc3-c3cccc(C(=O)O)c3)c(=O)c2c1C#N [compound 27]
61.6,50 to 1000,N#Cc1c(C(F)F)ccc2ncn(CCOc3ccc(Cl)cc3-c3cccc(C(=O)O)c3)c(=O)c12 [compound 28]
211,50 to 1000,N#Cc1cc2c(=O)n(CCOc3ccc(Cl)cc3-c3ccnc(C(=O)O)c3)cnc2cn1 [compound 29]
164,50 to 1000,N#Cc1cc2c(=O)n(CCOc3ccc(Cl)cc3-c3ccnc4c(C(=O)O)csc34)cnc2cn1 [compound 30]
190,50 to 1000,CNS(=O)(=O)c1cc2c(=O)n(CCOc3ccc(Cl)cc3-c3cccc(C(=O)O)c3)cnc2cn1 [compound 32]
203,50 to 1000,Cc1nc2c(C(F)F)nc(C#N)cc2c(=O)n1CCOc1ccc(Cl)cc1-c1cccc(C(=O)O)c1 [compound 33]
88.5,50 to 1000,N#Cc1cncc2ncn(CCOc3ccc(Cl)cc3-c3cccc(C(=O)O)c3)c(=O)c12 [compound 34]
44.3,< 50,Cc1nc2cncc(C#N)c2c(=O)n1CCOc1ccc(Cl)cc1-c1ccnc(C(=O)O)c1 [compound 35]
39.6,< 50,Cc1nc2c(C(F)F)ccc(C#N)c2c(=O)n1CCOc1ccc(Cl)cc1-c1cccc(C(=O)O)c1 [compound 37]
55.5,50 to 1000,Cc1nc2c(C(F)(F)F)ncc(C#N)c2c(=O)n1CCOc1ccc(Cl)cc1-c1cccc(C(=O)O)c1 [compound 38]
116,50 to 1000,N#Cc1cncc2nc(C(F)F)n(CCOc3ccc(Cl)cc3-c3ccnc4c(C(=O)O)csc34)c(=O)c12 [compound 39]
3440,> 1000,N#Cc1cc2c(=O)n(C/C=C/c3ccc(Cl)cc3-c3cccc(C(=O)O)c3)cnc2cn1 [compound 41]
19800,> 1000,N#Cc1cc2c(=O)n(CCCc3ccc(Cl)cc3-c3cccc(C(=O)O)c3)cnc2cn1 [compound 42]
> 10000,> 1000,N#Cc1cc2c(=O)n(C[C@@H]3C[C@H]3c3ccc(Cl)cc3-c3cccc(C(=O)O)c3)cnc2cn1 [compound 43]
73.1,50 to 1000,Cc1nc2cncc(C#N)c2c(=O)n1C/C=C/c1ccc(Cl)cc1-c1cccc(C(=O)O)c1 [compound 44]
2890,> 1000,Cc1ccc(C(=O)O)c2nccc(-c3cc(Cl)ccc3OCCn3cnc4cncc(C#N)c4c3=O)c12 [compound 45]
67.2,50 to 1000,N#Cc1cc(C(F)(F)F)cc2c(Cl)c(Cl)n(CCOc3ccc(Cl)cc3-c3ccnc4c(C(=O)O)csc34)c(=O)c12 [compound 46]
631,50 to 1000,N#Cc1cncc2nc(CCC(=O)O)n(CCOc3ccc(Cl)cc3-c3ccccc3)c(=O)c12 [compound 48]
